Data taken from patent US11629171B2, “Beta-hairpin peptidomimetics” (POLYPHOR AG, priority 2017, dated 2023).
Values after ≈ are worked out from the molar mass of the structure shown. Where a SMILES comes first, the peptide text is derived from it. Bridges are numbered along the chain shown (N, C = ends). Roman numbers before positions name the chains, in order. [ ]: non-standard residue; d: D form. The star is where a group is joined. Pen = CC(C)(S)[C@H](N)C(=O)O; Tle = CC(C)(C)[C@H](N)C(=O)O; dDab = NCC[C@@H](N)C(=O)O; hSer = N[C@@H](CCO)C(=O)O; Orn = NCCC[C@H](N)C(=O)O; Dab = NCC[C@H](N)C(=O)O; Dap = NC[C@H](N)C(=O)O; Propionyl = CCC(=O)*

Assays:
Assay type in all cases: cell-based
[1] = test system: Klebsiella pneumoniae 968733; settings: 968733
Procedure, shortened: (§1)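 CLSI broth microdilution in cation-adjusted Mueller-Hinton II broth with 0.002% polysorbate 80 (final), inoculum appr. 10^6 CFU/mL, peptides in serial two-fold dilutions. MIC (μg/mL) is the lowest concentration without visible growth after 18-20 h at 35° C.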

[2] = test system: Acinetobacter baumannii 872842; settings: 872842
Procedure, shortened: as §1

[3] = test system: Escherichia coli ATCC 25922; settings: ATCC 25922
Procedure, shortened: as §1

[4] = test system: Enterobacter cloacae 848840; settings: 848840
Procedure, shortened: as §1

[5] = test system: Escherichia coli 926415; settings: 926415
Procedure, shortened: as §1

[6] = test system: Pseudomonas aeruginosa ATCC 27853; settings: ATCC 27853
Procedure, shortened: as §1

[7] = test system: Acinetobacter baumannii DSM 30008; settings: DSM 30008
Procedure, shortened: as §1

[8] = test system: Klebsiella pneumoniae SSI #3010; settings: SSI #3010
Procedure, shortened: as §1

[9] = test system: human red blood cells (hRBC); test: Hemolysis; settings: red cells of human, 1 h, 200
Procedure, shortened: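 Read-out is supernatant absorbance at 540 nm, normalised to full lysis by 2% Triton X-100 and zero lysis by PBS with 10% water. Peptides (200 μg/mL) were exposed to 20% v/v washed human erythrocytes at 37° C for 1 h under shaking.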

| Structure (SMILES) | MIC [1] [mg/L] | MIC [2] [mg/L] | MIC [3] [mg/L] | MIC [4] [mg/L] | MIC [5] [mg/L] | MIC [6] [mg/L] | MIC [7] [mg/L] | MIC [8] [mg/L] | Hemolysis at 200 μg/mL [9] [%] |
| --- | --- | --- | --- | --- | --- | --- | --- | --- | --- |
| CC(=O)N[C@H](C(=O)N[C@H](C(=O)N[C@@H](Cc1ccc(O)cc1)C(=O)N[C@H]1CSSC(C)(C)[C@@H](C(=O)N[C@H](C(=O)N[C@@H](CO)C(=O)N[C@H](C(N)=O)[C@@H](C)O)C(C)(C)C)NC(=O)[C@H](Cc2c[nH]c3ccccc23)NC(=O)[C@H](CCN)NC(=O)[C@@H](CCN)NC(=O)[C@H](CCC(=O)N[C@@H](CCN)C(=O)N[C@H](C(=O)N[C@@H](CN)C(=O)N[C@H]2CCNC(=O)[C@H]([C@@H](C)O)NC(=O)[C@H](CCN)NC(=O)[C@H](CCN)NC(=O)[C@H]([C@@H](C)O)NC(=O)[C@@H](CC(C)C)NC(=O)[C@H](CCN)NC2=O)[C@@H](C)O)NC1=O)[C@@H](C)O)C(C)C [Ex. 224] (I: Ac-VTYCE[dDab][Dab]W[Pen][Tle]ST-NH2 / II: [Dab]T[Dap][Dab][Dab][dL]T[Dab][Dab]T; disulfide I:4-I:9; amide I:5-II:N; lactam II:4-II:C) | 0.25 (≈ 0.102 µM) | 0.0625 (≈ 0.0254 µM) | 0.03125 (≈ 0.0127 µM) | 0.125 (≈ 0.0509 µM) | 0.125 (≈ 0.0509 µM) | 0.125 (≈ 0.0509 µM) | 0.0625 (≈ 0.0254 µM) | 0.125 (≈ 0.0509 µM) | 1 |
| CC(=O)N[C@H](C(=O)N[C@H](C(=O)N[C@@H](Cc1ccc(O)cc1)C(=O)N[C@H]1CSSC[C@@H](C(=O)N[C@H](C(=O)N[C@@H](C)C(=O)N[C@@H](CO)C(N)=O)C(C)(C)C)NC(=O)[C@H](Cc2c[nH]c3ccccc23)NC(=O)[C@H]([C@@H](C)O)NC(=O)[C@@H](CCN)NC(=O)[C@H](CCC(=O)N[C@@H](CCN)C(=O)N[C@H](C(=O)N[C@@H](CCN)C(=O)N[C@H]2CCNC(=O)[C@H]([C@@H](C)O)NC(=O)[C@H](CCN)NC(=O)[C@H](CCN)NC(=O)[C@H](CC(C)C)NC(=O)[C@@H](CC(C)C)NC(=O)[C@H](CCN)NC2=O)[C@@H](C)O)NC1=O)[C@@H](C)O)C(C)C [Ex. 178] (I: Ac-VTYCE[dDab]TWC[Tle]AS-NH2 / II: [Dab]T[Dab][Dab][Dab][dL]L[Dab][Dab]T; disulfide I:4-I:9; amide I:5-II:N; lactam II:4-II:C) | 2 (≈ 0.824 µM) | 0.25 (≈ 0.103 µM) | 0.125 (≈ 0.0515 µM) | 0.25 (≈ 0.103 µM) | 0.5 (≈ 0.206 µM) | 0.125 (≈ 0.0515 µM) | 0.0625 (≈ 0.0258 µM) | 0.125 (≈ 0.0515 µM) | <1 |
| CC(=O)N[C@H](C(=O)N[C@H]1CSSC[C@@H](C(=O)N[C@@H](CO)C(=O)O)NC(=O)[C@H](C(C)(C)C)NC(=O)[C@H](CO)NC(=O)[C@H](Cc2c[nH]c3ccccc23)NC(=O)[C@H]([C@@H](C)O)NC(=O)[C@@H](CCN)NC(=O)[C@H](CCC(=O)N[C@@H](CCN)C(=O)N[C@H](C(=O)N[C@@H](CCN)C(=O)N[C@H]2CCNC(=O)[C@H]([C@@H](C)O)NC(=O)[C@H](CCN)NC(=O)[C@H](CCN)NC(=O)[C@H](CC(C)C)NC(=O)[C@@H](CC(C)C)NC(=O)[C@H](CCN)NC2=O)[C@@H](C)O)NC(=O)[C@H](CCN)NC(=O)[C@H](Cc2ccc(O)cc2)NC1=O)C(C)C [Ex. 52] (I: Ac-VCY[Dab]E[dDab]TWS[Tle]CS-OH / II: [Dab]T[Dab][Dab][Dab][dL]L[Dab][Dab]T; disulfide I:2-I:11; amide I:5-II:N; lactam II:4-II:C) | 4 (≈ 1.64 µM) | 2 (≈ 0.819 µM) | 0.25 (≈ 0.102 µM) | 2 (≈ 0.819 µM) | 2 (≈ 0.819 µM) | 0.25 (≈ 0.102 µM) | 1 (≈ 0.41 µM) | 0.25 (≈ 0.102 µM) | <1 |
| CC(=O)N[C@H](C(=O)N[C@H]1CSSC[C@@H](C(=O)N[C@H](C(N)=O)[C@@H](C)O)NC(=O)[C@H](C(C)(C)C)NC(=O)[C@H](CO)NC(=O)[C@H](Cc2c[nH]c3ccccc23)NC(=O)[C@H](CCN)NC(=O)[C@@H](CCN)NC(=O)[C@H](CCC(=O)N[C@@H](CCN)C(=O)N[C@H](C(=O)N[C@@H](CN)C(=O)N[C@H]2CCNC(=O)[C@H]([C@@H](C)O)NC(=O)[C@H](CCN)NC(=O)[C@H](CCN)NC(=O)[C@H]([C@@H](C)O)NC(=O)[C@@H](CC(C)C)NC(=O)[C@H](CCN)NC2=O)[C@@H](C)O)NC(=O)[C@H]([C@@H](C)O)NC(=O)[C@H](Cc2ccc(O)cc2)NC1=O)C(C)C [Ex. 263] (I: Ac-VCYTE[dDab][Dab]WS[Tle]CT-NH2 / II: [Dab]T[Dap][Dab][Dab][dL]T[Dab][Dab]T; disulfide I:2-I:11; amide I:5-II:N; lactam II:4-II:C) | 0.25 (≈ 0.103 µM) | 0.0625 (≈ 0.0257 µM) | 0.03125 (≈ 0.0129 µM) | 0.125 (≈ 0.0515 µM) | 0.125 (≈ 0.0515 µM) | 0.125 (≈ 0.0515 µM) | 0.03125 (≈ 0.0129 µM) | 0.03125 (≈ 0.0129 µM) | 1 |
| CC(=O)N[C@H](C(=O)N[C@H]1CCCNC(=O)[C@@H]([C@H](C)O)NC(=O)[C@H](C(C)(C)C)NC(=O)[C@H](CO)NC(=O)[C@H](Cc2c[nH]c3ccccc23)NC(=O)[C@H](CCO)NC(=O)[C@@H](CCN)NC(=O)[C@H](CCC(=O)N[C@@H](CCN)C(=O)N[C@H](C(=O)N[C@@H](CCN)C(=O)N[C@H]2CCNC(=O)[C@H]([C@@H](C)O)NC(=O)[C@H](CCN)NC(=O)[C@H](CCN)NC(=O)[C@H](CC(C)C)NC(=O)[C@@H](CC(C)C)NC(=O)[C@H](CCN)NC2=O)[C@@H](C)O)NC(=O)[C@H](CCN)NC(=O)[C@H](Cc2ccc(O)cc2)NC1=O)C(C)C [Ex. 15] (I: Ac-V[Orn]Y[Dab]E[dDab][hSer]WS[Tle][dT] / II: [Dab]T[Dab][Dab][Dab][dL]L[Dab][Dab]T; lactam I:2-I:C, II:4-II:C; amide I:5-II:N) | 0.25 (≈ 0.106 µM) | 0.25 (≈ 0.106 µM) | 0.0625 (≈ 0.0266 µM) | 0.125 (≈ 0.0532 µM) | 0.25 (≈ 0.106 µM) | 0.25 (≈ 0.106 µM) | 0.125 (≈ 0.0532 µM) | 0.125 (≈ 0.0532 µM) | <1 |
| CC(=O)N[C@@H]1C(=O)N[C@@H]([C@@H](C)O)C(=O)N[C@@H](Cc2ccc(O)cc2)C(=O)N[C@@H](CCN)C(=O)N[C@@H](CCC(=O)N[C@@H](CCN)C(=O)N[C@H](C(=O)N[C@@H](CN)C(=O)N[C@H]2CCNC(=O)[C@H]([C@@H](C)O)NC(=O)[C@H](CCN)NC(=O)[C@H](CCN)NC(=O)[C@H](CC(C)C)NC(=O)[C@@H](CC(C)C)NC(=O)[C@H](CCN)NC2=O)[C@@H](C)O)C(=O)N[C@H](CCN)C(=O)N[C@@H](CCN)C(=O)N[C@@H](Cc2c[nH]c3ccccc23)C(=O)N[C@@H](CCC(=O)O)C(=O)N[C@@H](C(C)(C)C)C(=O)N[C@@H](C)C(=O)N[C@H](C(N)=O)CSSC1(C)C [Ex. 228] (I: Ac-[Pen]TY[Dab]E[dDab][Dab]WE[Tle]AC-NH2 / II: [Dab]T[Dap][Dab][Dab][dL]L[Dab][Dab]T; disulfide I:1-I:12; amide I:5-II:N; lactam II:4-II:C) | 1 (≈ 0.403 µM) | 4 (≈ 1.61 µM) | 0.5 (≈ 0.201 µM) | 8 (≈ 3.22 µM) | 1 (≈ 0.403 µM) | 0.25 (≈ 0.101 µM) | 1 (≈ 0.403 µM) | 0.25 (≈ 0.101 µM) | <1 |
| CCC(=O)N[C@H](C(=O)N[C@H]1CSSC[C@@H](C(=O)N[C@@H](CO)C(N)=O)NC(=O)[C@H](C(C)(C)C)NC(=O)[C@H](CO)NC(=O)[C@H](Cc2c[nH]c3ccccc23)NC(=O)[C@H](CO)NC(=O)[C@@H](CCN)NC(=O)[C@H](CCC(=O)N[C@@H](CCN)C(=O)N[C@H](C(=O)N[C@@H](CN)C(=O)N[C@H]2CCNC(=O)[C@H]([C@@H](C)O)NC(=O)[C@H](CCN)NC(=O)[C@H](CCN)NC(=O)[C@H](CC(C)C)NC(=O)[C@@H](CC(C)C)NC(=O)[C@H](CCN)NC2=O)[C@@H](C)O)NC(=O)[C@H](CN)NC(=O)[C@H](Cc2ccc(O)cc2)NC1=O)C(C)C [Ex. 119] (I: Propionyl-VCY[Dap]E[dDab]SWS[Tle]CS-NH2 / II: [Dab]T[Dap][Dab][Dab][dL]L[Dab][Dab]T; disulfide I:2-I:11; amide I:5-II:N; lactam II:4-II:C) | 0.125 (≈ 0.0518 µM) | 0.03125 (≈ 0.013 µM) | 0.0625 (≈ 0.0259 µM) | 0.0625 (≈ 0.0259 µM) | 0.0625 (≈ 0.0259 µM) | 0.125 (≈ 0.0518 µM) | 0.0625 (≈ 0.0259 µM) | 0.0625 (≈ 0.0259 µM) | <1 |
